Measured values: article PMC4297292 (Cancer Cell, 2015)

Columns and labels:
[1] = test system: ERK activity in SK-Mel 23 cells; assay: pERK immunoblot; type: cell-based; settings: 1 μM; 4 hr
[2] = test system: PDX from patient #13; assay: PDX growth; type: in vivo, NSG mice; settings: 20 mg/kg daily gavage; patient #13 PDX study
[3] = test system: patient #3 tumor cells; assay: Cell proliferation assay; type: cell-based; settings: CellTiter Glo
[4] = test system: PLX4720-resistant PDX from patient #1; assay: PDX growth; type: in vivo, NSG mice; settings: PLX4720 45 mg/kg, CCT compounds 20 mg/kg daily gavage
[5] = biological target: CRAF (Homo sapiens, UniProt P04049, Y340D/Y341D); assay: Z'-LYTE kinase assay; type: biochemical; settings: Table 1
[6] = test system: A375/R xenograft (PLX4720-resistant A375); assay: Xenograft growth; type: in vivo, nude mice; settings: 20 mg/kg oral daily; for body weight: A375/R xenograft study; for xenograft growth: nude mice
[7] = test system: melanoma and colorectal cancer cell lines that are mutant for BRAF; assay: Cell growth inhibition; type: cell-based; settings: Figures 2A and 2B
[8] = test system: panel of 63 protein kinases; assay: Efficacy against a panel of protein kinases; type: biochemical; settings: 1 μM, percent activity compared to DMSO
[9] = test system: SK-Mel 23 cells; assay: Cell growth inhibition; type: cell-based; settings: Figure 2A
[10] = test system: RAS mutant melanoma and colorectal cancer cells; assay: Cell growth inhibition; type: cell-based; settings: Figures 2A and 2B
[11] = test system: ERK and SRC in patient #3 PDX; assay: pERK/pSFK immunoblot in PDX; type: in vivo, mice; settings: PLX4720 45 mg/kg, CCT compounds 20 mg/kg daily gavage
[12] = test system: cell lines from patient #5 tumor; assay: Cell proliferation assay; type: cell-based; settings: CellTiter Glo
[13] = test system: BRAF^V600E A375 cells; assay: Cell proliferation assay; type: cell-based; settings: CellTiter Glo
[14] = Single and repeat dose tolerability / oral toxicity; type: in vivo, CD-1 mice; settings: for weight loss: 30 mg/kg for 4 days
[15] = test system: A375 cells; assay: Colony formation; type: cell-based; settings: 0.5 μM; 20 days
[16] = biological target: SRC (Homo sapiens, UniProt P12931); assay: Z'-LYTE kinase assay; type: biochemical
[17] = test system: NRAS mutant D04 cells; assay: Cell proliferation assay; type: cell-based; settings: CellTiter Glo
[18] = test system: MEK and ERK in WM266.4 cells (BRAF mutant); assay: pMEK/pERK immunoblot; type: cell-based; settings: 24 hr
[19] = test system: BRAF^V600E A375 xenograft; assay: Xenograft growth; type: in vivo, nude mice
[20] = test system: patient #4 PDX; assay: PDX growth; type: in vivo, NSG mice; settings: for body weight: 20 mg/kg daily gavage, patient #4 PDX study; for PDX sensitivity: PLX4720 45 mg/kg, CCT compounds 20 mg/kg daily gavage, NSG mice
[21] = test system: cancer cells that are wild-type for BRAF and NRAS; assay: Cell growth inhibition; type: cell-based; settings: Figure 2A, in general
[22] = biological target: MEK1 (Homo sapiens, UniProt Q02750); assay: Z'-LYTE kinase assay; type: biochemical
[23] = test system: patient #2 cells (vemurafenib-resistant melanoma); assay: Cell proliferation assay; type: cell-based
[24] = test system: MEK, ERK and SRC/SFKs in patient #2 cells; assay: pMEK, pERK, pSFK immunoblot; type: cell-based; settings: 4 hr; for inhibition of SFKs: 0.5 µM, Figure S3B; for inhibition of MEK, ERK, and SRC: 1 μM
[25] = test system: patient #3 PDX; assay: PDX growth; type: in vivo, NSG mice; settings: for body weight: 20 mg/kg daily gavage, patient #3 PDX study; for PDX growth: PLX4720 45 mg/kg, CCT compounds 20 mg/kg daily gavage, NSG mice
[26] = biological target: LCK (Homo sapiens, UniProt P06239); assay: Z'-LYTE kinase assay; type: biochemical
[27] = test system: MEK in NRAS mutant D04 cells; assay: pMEK/pERK immunoblot; type: cell-based; settings: 24 hr
[28] = Pharmacokinetic studies, plasma, oral and intravenous dosing; type: in vivo, Balb/c mice; settings: for bioavailability: Balb/c, mouse, plasma, po, 10 mg/kg; for area under the curve / plasma concentration: oral 10 mg/kg/day; for plasma concentration: 10 mg/kg/day
[29] = test system: caspase 3 and PARP cleavage in patient #2 cells; assay: PARP and caspase 3 immunoblot; type: cell-based; settings: 1 μM; 4 hr
[30] = test system: NRAS mutant D04 xenograft; assay: Xenograft growth; type: in vivo; settings: 20 mg/kg oral daily; nude mice
[31] = test system: PDX from patient #5; assay: PDX growth; type: in vivo, NSG mice; settings: for body weight: 20 mg/kg daily gavage, patient #5 PDX study; for PDX sensitivity compared with PLX4720: PLX4720 45 mg/kg, CCT compounds 20 mg/kg daily gavage, NSG mice
[32] = biological target: COT (Homo sapiens, UniProt P41279); assay: Z'-LYTE kinase assay; type: biochemical
[33] = test system: patient #2 cell xenograft; assay: Xenograft growth; type: in vivo, nude mice; settings: for body weight: 20 mg/kg oral daily, patient #2 xenograft study; for xenograft growth: PLX4720 90 mg/kg, CCT compounds 20 mg/kg oral daily, nude mice
[34] = biological target: BRAF (Homo sapiens, UniProt P15056); assay: Z'-LYTE kinase assay; type: biochemical
[35] = test system: Ba/F3 cells transformed with BRAF^T529N,V600E; assay: Growth of Ba/F3 cells; type: cell-based; settings: [3H]-thymidine incorporation
[36] = test system: A375/R cells; assay: Cell proliferation assay; type: cell-based; settings: CellTiter Glo
[37] = test system: BRAF^T529N,V600E; assay: BRAF kinase inhibition, gatekeeper mutant; type: biochemical
[38] = 25 mg/kg daily for 19 days, CD-1 mice
[39] = 20 mg/kg/day oral, 7 days/week, nude mice

COT, sequence (P41279 whole entry): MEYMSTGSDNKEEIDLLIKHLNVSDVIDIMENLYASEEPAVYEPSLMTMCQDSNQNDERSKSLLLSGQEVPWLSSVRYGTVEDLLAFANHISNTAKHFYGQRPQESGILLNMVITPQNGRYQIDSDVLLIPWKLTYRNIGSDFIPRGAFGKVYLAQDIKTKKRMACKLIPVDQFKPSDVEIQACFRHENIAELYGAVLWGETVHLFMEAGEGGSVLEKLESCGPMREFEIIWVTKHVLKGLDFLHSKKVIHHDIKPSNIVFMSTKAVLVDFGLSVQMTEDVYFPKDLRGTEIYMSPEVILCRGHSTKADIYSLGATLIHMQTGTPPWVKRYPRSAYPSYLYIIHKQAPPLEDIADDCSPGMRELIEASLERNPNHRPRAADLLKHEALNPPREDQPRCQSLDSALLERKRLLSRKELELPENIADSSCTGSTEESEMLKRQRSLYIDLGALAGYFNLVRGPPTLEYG
LCK, sequence (P06239 whole entry): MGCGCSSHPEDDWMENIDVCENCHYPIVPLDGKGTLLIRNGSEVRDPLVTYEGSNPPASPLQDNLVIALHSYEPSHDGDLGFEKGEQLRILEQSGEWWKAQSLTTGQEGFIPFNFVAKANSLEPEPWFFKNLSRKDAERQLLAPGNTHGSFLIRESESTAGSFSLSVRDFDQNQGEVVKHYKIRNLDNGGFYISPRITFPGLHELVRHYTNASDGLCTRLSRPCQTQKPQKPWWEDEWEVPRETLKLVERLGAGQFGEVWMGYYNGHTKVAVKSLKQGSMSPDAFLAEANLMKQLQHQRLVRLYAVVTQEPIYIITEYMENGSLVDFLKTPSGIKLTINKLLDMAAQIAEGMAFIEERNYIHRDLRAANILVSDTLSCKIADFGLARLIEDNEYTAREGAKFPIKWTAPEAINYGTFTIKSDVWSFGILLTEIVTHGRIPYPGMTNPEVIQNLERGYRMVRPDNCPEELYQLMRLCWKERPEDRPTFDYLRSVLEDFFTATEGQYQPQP
CRAF, sequence (P04049 306-648 Y340D/Y341D limits assumed): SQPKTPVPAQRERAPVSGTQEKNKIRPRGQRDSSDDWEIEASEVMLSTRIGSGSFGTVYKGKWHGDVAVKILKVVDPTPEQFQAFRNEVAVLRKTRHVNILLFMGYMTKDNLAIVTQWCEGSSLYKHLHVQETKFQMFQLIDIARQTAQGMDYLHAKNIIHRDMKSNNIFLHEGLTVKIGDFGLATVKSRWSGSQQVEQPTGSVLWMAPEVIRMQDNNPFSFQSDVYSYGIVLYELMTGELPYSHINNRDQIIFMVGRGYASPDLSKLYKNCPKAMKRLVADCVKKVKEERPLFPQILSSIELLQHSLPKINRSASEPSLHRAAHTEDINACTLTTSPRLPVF
MEK1, sequence (Q02750 whole entry): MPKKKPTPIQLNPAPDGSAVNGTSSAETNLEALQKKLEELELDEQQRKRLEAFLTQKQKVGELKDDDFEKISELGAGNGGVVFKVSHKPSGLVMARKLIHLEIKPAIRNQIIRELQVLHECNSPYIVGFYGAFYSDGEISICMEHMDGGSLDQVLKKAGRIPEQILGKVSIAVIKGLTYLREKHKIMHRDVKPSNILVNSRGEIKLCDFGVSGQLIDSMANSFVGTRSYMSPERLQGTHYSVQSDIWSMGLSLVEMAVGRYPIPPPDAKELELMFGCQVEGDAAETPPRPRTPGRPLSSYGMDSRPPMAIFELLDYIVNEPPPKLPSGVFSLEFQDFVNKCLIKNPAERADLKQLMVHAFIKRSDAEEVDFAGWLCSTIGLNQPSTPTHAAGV
SRC, sequence (P12931 whole entry): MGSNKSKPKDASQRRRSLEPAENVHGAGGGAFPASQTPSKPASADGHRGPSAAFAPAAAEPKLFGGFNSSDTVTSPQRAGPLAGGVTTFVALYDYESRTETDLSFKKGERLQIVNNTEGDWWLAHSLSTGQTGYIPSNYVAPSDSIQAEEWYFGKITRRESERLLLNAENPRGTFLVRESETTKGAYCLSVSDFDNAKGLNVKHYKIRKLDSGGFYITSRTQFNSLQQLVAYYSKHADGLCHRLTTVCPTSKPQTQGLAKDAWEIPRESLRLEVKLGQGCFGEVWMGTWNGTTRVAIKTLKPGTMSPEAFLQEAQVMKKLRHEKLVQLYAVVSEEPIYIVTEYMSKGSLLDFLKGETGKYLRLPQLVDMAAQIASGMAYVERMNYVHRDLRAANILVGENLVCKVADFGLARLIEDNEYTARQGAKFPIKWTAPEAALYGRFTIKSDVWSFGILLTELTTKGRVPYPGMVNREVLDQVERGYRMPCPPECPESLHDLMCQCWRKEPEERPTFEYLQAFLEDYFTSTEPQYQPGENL
BRAF, sequence (P15056 whole entry): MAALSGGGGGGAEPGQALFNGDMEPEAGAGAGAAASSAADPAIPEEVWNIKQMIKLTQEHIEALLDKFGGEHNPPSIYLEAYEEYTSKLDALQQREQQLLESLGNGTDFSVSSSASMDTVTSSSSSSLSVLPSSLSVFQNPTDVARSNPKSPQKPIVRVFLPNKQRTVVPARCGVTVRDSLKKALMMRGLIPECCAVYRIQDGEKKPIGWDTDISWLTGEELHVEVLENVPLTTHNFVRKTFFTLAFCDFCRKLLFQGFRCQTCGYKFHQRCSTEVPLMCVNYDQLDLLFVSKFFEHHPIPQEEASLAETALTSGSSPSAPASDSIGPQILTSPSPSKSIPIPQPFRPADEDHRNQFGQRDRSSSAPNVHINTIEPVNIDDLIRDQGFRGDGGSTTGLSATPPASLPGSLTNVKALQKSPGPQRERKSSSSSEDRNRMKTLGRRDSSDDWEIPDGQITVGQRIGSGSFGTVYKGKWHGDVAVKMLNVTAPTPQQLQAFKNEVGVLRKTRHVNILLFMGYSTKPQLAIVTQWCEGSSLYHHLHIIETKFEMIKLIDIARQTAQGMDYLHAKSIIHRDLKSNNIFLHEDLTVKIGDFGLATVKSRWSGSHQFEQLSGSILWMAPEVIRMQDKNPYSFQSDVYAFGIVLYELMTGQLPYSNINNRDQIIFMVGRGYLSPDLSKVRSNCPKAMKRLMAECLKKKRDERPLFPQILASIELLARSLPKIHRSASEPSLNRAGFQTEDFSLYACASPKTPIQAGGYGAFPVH

CC(C)(C)c1cc(NC(=O)Nc2ccc(Oc3ccnc4[nH]c(=O)cnc34)cc2F)n(-c2ccccc2)n1 [CCT196969]
ERK activity in SK-Mel 23 cells [1]: sensitive
body weight [2]: no body weight loss was observed
cell sensitivity [3]: sensitive
PDX sensitivity [4]: remains sensitive
IC50 [5]: 0.01 µM
body weight [6]: without causing any body weight loss
xenograft growth [6]: inhibit the growth
activity against BRAF mutant cell lines [7]: active
kinases inhibited in a panel of protein kinases [8]: only inhibit SRC, LCK, and the p38 mitogen-activated protein kinases (MAPKs)
sensitivity of SK-Mel 23 cells [9]: sensitive
activity against RAS mutant cells [10]: also active
inhibition of ERK and SRC in PDX [11]: inhibit ERK and SRC
cell sensitivity compared with PLX4720 [12]: more sensitive
growth inhibition of BRAF mutant melanoma cells, compared with PLX4720 [13]: more potently than PLX4720
clinical signs and body weight ([14]; 20 mg/kg daily × 24 days, CD-1 mice): no clinical signs or body weight loss
body weight and food intake [14, 38]: did not show any body weight loss or reduction in food intake
clinical signs [14, 38]: tachypnoea with decreased activity and excitation
mortality [14, 38]: did not observe any mortality
microscopical examination of tissues ([14]; 25 mg/kg daily for 19 days, end of the study): did not identify any treatment-related changes
weight loss ([14]; oral gavage): do not cause significant weight loss
clinical signs / adverse effects ([14]; single dose 20 mg/kg, oral gavage, CD-1 mice): no observed adverse effects
body weight ([14]; single dose 40 mg/kg, oral gavage, CD-1 mice): no effect on body weight
clinical signs ([14]; single dose 40 mg/kg, oral gavage, CD-1 mice, 1 hr after dosing): slight, transient tachypnoea
colony formation under continual exposure [15]: no cells are able to grow
IC50 ([16]; IC50 SRC, Table 1): 0.03 µM
NRAS mutant cell growth inhibition, compared with PLX4720 [17]: more efficiently than does PLX4720
inhibition of MEK and ERK [18]: inhibit MEK and ERK
xenograft growth ([19]; 10 mg/kg/day, data not shown): also effective
xenograft growth [19, 39]: tumor regression
body weight [20]: do not cause body weight loss
PDX sensitivity [20]: sensitive
activity against BRAF and NRAS wild-type cancer cells [21]: not active
IC50 [22]: > 10 µM
cell line sensitivity ([23]; CellTiter Glo): sensitive
growth inhibition compared with PLX4720, ARQ736, RAF265, MLN2480 ([23]; CellTiter Glo, Figure S3C): more potently than any of the other inhibitors
inhibition of SFKs [24]: also inhibit SFKs
inhibition of MEK, ERK, and SRC [24]: inhibit MEK, ERK, and SRC
body weight [25]: without causing body weight loss
PDX growth [25]: tumor regression
IC50 [26]: 0.014 µM
effect on MEK in NRAS mutant cells [27]: inhibit rather than activate MEK
bioavailability [28]: ~55%
area under the curve [28]: ~416,000 nM.hr
plasma concentration ([28]; at 24 hr): ~1 µM
caspase 3 and PARP cleavage (apoptosis) [29]: induce caspase 3 and PARP cleavage
xenograft growth [30]: inhibit the growth
body weight [31]: did not observe any loss in body weight
PDX sensitivity compared with PLX4720 [31]: more sensitive
IC50 [32]: > 10 µM
body weight [33]: without causing any body weight loss
xenograft growth [33]: complete inhibition

CSc1cc(Oc2ccnc3[nH]c(=O)cnc23)ccc1NC(=O)Nc1cc(C(C)(C)C)nn1-c1ccccc1 [CCT241161]
ERK activity in SK-Mel 23 cells [1]: sensitive
body weight [2]: no body weight loss was observed
IC50 [34]: 0.252 µM
cell sensitivity [3]: sensitive
PDX sensitivity [4]: remains sensitive
IC50 [5]: 0.006 µM
body weight [6]: without causing any body weight loss
xenograft growth [6]: inhibit the growth
activity against BRAF mutant cell lines [7]: active
kinases inhibited in a panel of protein kinases [8]: only inhibit SRC, LCK, and the p38 mitogen-activated protein kinases (MAPKs)
sensitivity of SK-Mel 23 cells [9]: sensitive
activity against RAS mutant cells [10]: also active
inhibition of ERK and SRC in PDX [11]: inhibit ERK and SRC
cell sensitivity compared with PLX4720 [12]: more sensitive
growth inhibition of BRAF mutant melanoma cells, compared with PLX4720 [13]: more potently than PLX4720
weight loss ([14]; oral gavage): do not cause significant weight loss
colony formation under continual exposure [15]: no cells are able to grow
IC50 ([16]; inhibits SRC at): 0.015 µM
NRAS mutant cell growth inhibition, compared with PLX4720 [17]: more efficiently than does PLX4720
inhibition of MEK and ERK [18]: inhibit MEK and ERK
xenograft growth [19, 39]: tumor regression
body weight [20]: do not cause body weight loss
PDX sensitivity [20]: sensitive
activity against BRAF and NRAS wild-type cancer cells [21]: not active
IC50 [22]: > 10 µM
cell line sensitivity ([23]; CellTiter Glo): sensitive
inhibition of SFKs [24]: also inhibit SFKs
inhibition of MEK, ERK, and SRC [24]: inhibit MEK, ERK, and SRC
body weight [25]: without causing body weight loss
PDX growth [25]: tumor regression
IC50 [26]: 0.003 µM
fold less sensitive, Ba/F3 cells transformed with BRAF^T529N,V600E vs BRAF^V600E [35]: 19 fold
sensitivity of PLX4720-resistant A375 cells [36]: still sensitive
effect on MEK in NRAS mutant cells [27]: inhibit rather than activate MEK
bioavailability [28]: ~55%
area under the curve [28]: ~275,000 nM.hr
plasma concentration ([28]; at 14 hr): ~1 µM
caspase 3 and PARP cleavage (apoptosis) [29]: induce caspase 3 and PARP cleavage
fold less active against BRAF^T529N,V600E than BRAF^V600E [37]: 42 fold
xenograft growth [30]: inhibit the growth
body weight [31]: did not observe any loss in body weight
PDX sensitivity compared with PLX4720 [31]: more sensitive
IC50 [32]: > 10 µM
body weight [33]: without causing any body weight loss
xenograft growth [33]: complete inhibition

CCCS(=O)(=O)Nc1ccc(F)c(C(=O)c2c[nH]c3ncc(Cl)cc23)c1F [PLX4720, reference compound]
cell sensitivity [3]: not inhibited
PDX sensitivity [4]: resistance
inhibition of ERK and SRC in PDX [11]: does not inhibit ERK or SRC
PDX sensitivity [20]: resistant
cell line sensitivity ([23]; CellTiter Glo): resistant
inhibition of MEK, ERK, and SRC [24]: does not
PDX growth [25]: neither does it inhibit the growth
caspase 3 and PARP cleavage (apoptosis) [29]: does not
xenograft growth [33]: resistant

C[S+]([O-])c1ccc(-c2nc(-c3ccncc3)c(-c3ccc(F)cc3)[nH]2)cc1 (stereo not drawn) [SB203580]
cooperation with the pan-RAF inhibitors RAF265 or MLN2480 ([23]; 10 µM SB203580 in combination, Figure S3E): does not cooperate

COc1cc2ncnc(Nc3ccc(Oc4ccccc4)cc3)c2cc1OC [SRC inhibitor 1]
effect in combination with TAK632 ([23]; 40 µM SRC Inhibitor 1 with TAK632, Figure S3D): increases the activity of the pan-RAF inhibitor TAK632
activity alone ([23]; CellTiter Glo, Figure S3D): inactive alone
